The results in this text go back to ChEMBL document CHEMBL3044898, “Alkoxyphenyl methanesulfonamides: synthesis, anti-inflammatory effect, and docking studies” (Med Chem Res, 2012).

Data set [1] concerns Rattus norvegicus. The data set can be described thus: Anti-inflammatory activity in po dosed Rattus norvegicus Wistar (rat) assessed as inhibition of carrageenan-induced paw edema administered 30 min post carrageenan challenge measured at 5 hr. It counts as functional. (In general: The carrageenan paw model is a standard test of acute inflammation.)
Data set [2] has as its system Rattus norvegicus. The data set can be described thus: Anti-inflammatory activity in Rattus norvegicus Wistar (rat) assessed as inhibition of carrageenan-induced paw edema at 75 mg/kg, po administered 30 min post carrageenan challenge measured at 5 hr relative to control. Format: functional.
Data set [3] relates to Rattus norvegicus. The data set can be described thus: Anti-inflammatory activity in Rattus norvegicus Wistar (rat) assessed as inhibition of carrageenan-induced paw edema at 25 mg/kg, po administered 30 min post carrageenan challenge measured at 5 hr relative to control. It counts as functional.
Data set [4] relates to Rattus norvegicus. The data set can be described thus: Anti-inflammatory activity in Rattus norvegicus Wistar (rat) assessed as inhibition of carrageenan-induced paw edema at 5 mg/kg, po administered 30 min post carrageenan challenge measured at 5 hr relative to control. Format: functional.
Data set [5] concerns Rattus norvegicus. The data set is described as follows: Ulcerogenic activity in Rattus norvegicus Wistar (rat) assessed as length of lesion at 75 mg/kg, po after 6 hr (reference value: 0 mm). Conditions: in vivo. Further details: dose 75 mg/kg, route oral. Format: toxicity, organism-based.
Data set [6] relates to Rattus norvegicus. The data set can be described thus: Ulcerogenic activity in Rattus norvegicus Wistar (rat) assessed as length of lesion at 25 mg/kg, po after 6 hr (reference value: 0 mm). Format: toxicity, organism-based. The arrangement: dose 25 mg/kg, route oral. The note with it: in vivo.
The test system of data set [7] is Rattus norvegicus. The data set is described as follows: Ulcerogenic activity in Rattus norvegicus Wistar (rat) assessed as length of lesion at 5 mg/kg, po after 6 hr (reference value: 0 mm). The arrangement: dose 5 mg/kg, route oral. Format: toxicity, organism-based. Conditions: in vivo.
Data set [8] concerns Rattus norvegicus. The data set is described as follows: Ulcerogenic activity in Rattus norvegicus Wistar (rat) assessed as length of lesion at 10 mg/kg, po after 6 hr (reference value: 0 mm). Conditions: in vivo. Further details: dose 10 mg/kg, route oral. Format: toxicity, organism-based.
In data set [9] the test system is Rattus norvegicus. The data set is described as follows: Anti-inflammatory activity in Rattus norvegicus Wistar (rat) assessed as inhibition of carrageenan-induced paw edema at 100 mg/kg, po administered 30 min post carrageenan challenge measured at 5 hr relative to control. Format: functional.
The subject of data set [10] is Rattus norvegicus. The data set is described as follows: Ulcerogenic activity in Rattus norvegicus Wistar (rat) assessed as length of lesion at 100 mg/kg, po after 6 hr (reference value: 0 mm). Further details: dose 100 mg/kg, route oral. It counts as toxicity, organism-based. The note with it: in vivo.
Data set [11] concerns Rattus norvegicus. The data set is described as follows: Anti-inflammatory activity in Rattus norvegicus Wistar (rat) assessed as inhibition of carrageenan-induced paw edema at 30 mg/kg, po administered 30 min post carrageenan challenge measured at 5 hr relative to control. Format: functional.
Data set [12] deals with Rattus norvegicus. The data set can be described thus: Ulcerogenic activity in Rattus norvegicus Wistar (rat) assessed as length of lesion at 30 mg/kg, po after 6 hr (reference value: 0 mm). Further details: dose 30 mg/kg, route oral. The note with it: in vivo. Format: toxicity, organism-based.

The structures appear in SMILES notation.

Usually ED50 stands for the dose at which the effect has come halfway, by size or by number of responders. The term inhibition in vivo denotes the relative decrease from the control value, in per cent. `CCOc1cc(C(C)=O)ccc1NS(C)(=O)=O`: the 50% effective dose (ED50) in the data set with Rattus norvegicus [1] was determined as 1.8 mg/kg. In the data set on Rattus norvegicus [2], the inhibition in vivo at 75 mg/kg amounted to 66.2%. For the same compound, the inhibition in vivo at 25 mg/kg in the data set on Rattus norvegicus [3] came out at 54.6%. Further, in the data set on Rattus norvegicus [4], the inhibition in vivo at 5 mg/kg was found to be 44%. Moreover, the Activity with Rattus norvegicus [5] was determined as 1 mm; with Rattus norvegicus [6], 0 mm; with Rattus norvegicus [7], 0 mm.

Take `CCCCCCCCOc1cc(C(C)=O)ccc1NS(C)(=O)=O`: in the data set with Rattus norvegicus [1], the ED50 came out at 2.36 mg/kg. Also, the inhibition in vivo at 75 mg/kg with Rattus norvegicus [2] came out at 69.9%. Besides, the inhibition in vivo at 25 mg/kg with Rattus norvegicus [3] was 62.5%. For the same compound, the inhibition in vivo at 5 mg/kg in the data set on Rattus norvegicus [4] turned out to be 51.5%. Besides, the Activity was determined as 2 mm in the data set on Rattus norvegicus [5], 1 mm in the data set on Rattus norvegicus [6] and 0 mm in the data set on Rattus norvegicus [7].

As to `COc1ccc2c(c1)c(CC(=O)O)c(C)n2C(=O)c1ccc(Cl)cc1` [INDOMETHACIN], in the data set on Rattus norvegicus [1], the median effective dose (ED50) was 2.2 mg/kg. For the same compound, in the data set with Rattus norvegicus [8], the Activity turned out to be 19.4 mm.

Turning to `CC(=O)c1ccc(NS(C)(=O)=O)c(O)c1`, in the data set on Rattus norvegicus [9], the inhibition in vivo at 100 mg/kg came to 15.9%. Besides, the Activity with Rattus norvegicus [10] stood at 1 mm.

On to `CS(=O)(=O)c1ccc(C2=C(c3ccccc3)C(=O)OC2)cc1` [ROFECOXIB], for which the ED50 in the data set with Rattus norvegicus [1] is 2.61 mg/kg. Besides, the inhibition in vivo at 30 mg/kg in the data set on Rattus norvegicus [11] was 82.8%. The Activity with Rattus norvegicus [12] came to 2 mm.

Take `CCCOc1cc(C(C)=O)ccc1NS(C)(=O)=O`: the ED50 with Rattus norvegicus [1] amounted to 2.25 mg/kg. In addition, in the data set on Rattus norvegicus [2], the inhibition in vivo at 75 mg/kg turned out to be 67.2%. The inhibition in vivo at 25 mg/kg with Rattus norvegicus [3] turned out to be 62.1%. Also, the inhibition in vivo at 5 mg/kg with Rattus norvegicus [4] came to 56.6%. The results for the Activity in the data set on Rattus norvegicus [5], in the data set on Rattus norvegicus [6] and in the data set on Rattus norvegicus [7] were 1 mm, 1 mm and 0 mm, respectively.

As to `CC(=O)c1ccc(NS(C)(=O)=O)c(OC2CCCC2)c1`, the 50% effective dose (ED50) in the data set on Rattus norvegicus [1] worked out at 2.31 mg/kg. Also, the inhibition in vivo at 75 mg/kg with Rattus norvegicus [2] was found to be 69.2%. For the same compound, the inhibition in vivo at 25 mg/kg in the data set on Rattus norvegicus [3] amounted to 57.4%. The inhibition in vivo at 5 mg/kg in the data set with Rattus norvegicus [4] stood at 58.7%. Further, the values for the Activity with Rattus norvegicus [5], in the data set on Rattus norvegicus [6] and with Rattus norvegicus [7] were 1 mm, 0 mm and 0 mm, respectively.
